The source of these data is US20110207723A1, “NOVEL FUSED AMINODIHYDROTHIAZINE DERIVATIVE” (EISAI R&D MANAGEMENT CO., LTD., priority 2008, published 2011).

pIC50: −log10 of the molar value.

The test system of the test is Aβ42 production. Nature of the test: Quantification of Aβ peptide in culture of neurons from rat fetus brain (Aβ42 ELISA). The class given is cell-based. To be noted: Neuron, 72 h, rat primary neuronal culture (embryonic day 18 Wistar rat cerebral cortex), medium collected three days after addition of compound, read-out: Aβ42 production reducing effect IC50. The method, then: Quantification of Aβ Peptide in Culture of Neurons from Rat Fetus Brain
Primary neuronal cultures were prepared from the cerebral cortex of embryonic day 18 Wistar rats (Charles River Japan, Yokohama, Japan). Specifically, the embryos were aseptically removed from pregnant rats under ether anesthesia. The brain was isolated from the embryo and immersed in an ice-cold L-15 medium (such as Invitrogen Corp. Cat #11415-064, Carlsbad, Calif., USA, or SIGMA L1518). The cerebral cortex was collected from the isolated brain under a stereoscopic microscope. The cerebral cortex fragments collected were enzymatically treated in an enzyme solution containing 0.25% trypsin (Invitrogen Corp. Cat #15050-065, Carlsbad, Calif., USA) and 0.01% DNase (Sigma D5025, St. Louis, Mo., USA) at 37° C. for 30 minutes to disperse the cells. Here, the enzymatic reaction was stopped by adding inactivated horse serum to the solution. The enzymatically treated solution was centrifuged at 1,500 rpm for five minutes to remove the supernatant. 5 to 10 ml of a medium was added to the resulting cell mass. Neurobasal medium (Invitrogen Corp. Cat #21103-049, Carlsbad, Calif., USA) supplemented with 2% B27 supplement (Invitrogen Corp. Cat #17504-044, Carlsbad, Calif., USA), 25 μM 2-mercaptoethanol (2-ME, WAKO Cat #139-06861, Osaka, Japan), 0.5 mM L-glutamine (Invitrogen Corp. Cat #25030-081, Carlsbad, Calif., USA), and Antibiotics-Antimycotics (Invitrogen Corp. Cat #15240-062, Carlsbad, Calif., USA) was used as the medium (Neurobasal/B27/2-ME). However, the above Neurobasal medium not supplemented with 2-ME (Neurobasal/B27) was used for the assay. The cells were redispersed by mild pipetting of the cell mass to which the medium was added. The cell dispersion was filtered through a 40-μm nylon mesh (Cell Strainer, Cat #35-2340, Becton Dickinson Labware, Franklin Lakes, N.J., USA) to remove the remaining cell mass, and thus a neuronal cell suspension was obtained. The neuronal cell suspension was diluted with the medium and then plated in a volume of 100 μl/well at an initial cell density of 5×10^5 cells/cm^2 in a 96-well polystyrene culture plate pre-coated with poly-L or D-lysine (Falcon Cat #35-3075, Becton Dickinson Labware, Franklin Lakes, N.J., USA coated with poly-L-lysine using the method shown below, or BIOCOAT™ cell environments Poly-D-lysine cell ware 96-well plate, Cat #35-6461, Becton Dickinson Labware, Franklin Lakes, N.J., USA). Poly-L-lysine coating was carried out as follows. 100 μg/ml of a poly-L-lysine (SIGMA P2636, St. Louis, Mo., USA) solution was aseptically prepared with a 0.15 M borate buffer (pH 8.5). […] of the solution was added to the 96-well polystyrene culture plate and incubated at room temperature for one or more hours or at 4° C. overnight or longer. Thereafter, the coated 96-well polystyrene culture plate was washed with sterile water four or more times, and then dried or rinsed with, for example, sterile PBS or medium, and used for cell plating. The plated cells were cultured in the culture plate at 37° C. in 5% CO2-95% air for one day. Then, the total amount of the medium was replaced with a fresh Neurobasal/B27/2-ME medium, and then the cells were cultured for further three days.
The drug was added to the culture plate on Day 4 of culture as follows. The total amount of the medium was removed from the wells, and 180 μl/well of Neurobasal medium not containing 2-ME and containing 2% B-27 (Neurobasal/B27) was added thereto. A solution of the test compound in dimethyl sulfoxide (hereinafter abbreviated as DMSO) was diluted with Neurobasal/B27 to a concentration 10-fold higher than the final concentration. 20 μl/well of the dilution was added to and sufficiently mixed with the medium. The final DMSO concentration was 1% or less. Only DMSO was added to the control group.
The cells were cultured for three days after addition of the compound, and the total amount of the medium was collected. […]
By pIC50 is commonly meant −log10 of the IC50, conventionally taken in molar units. Consider `NC1=N[C@@]2(c3cc(-c4cccnc4F)ccc3F)COCC[C@H]2CS1` (racemic) [Example 61, (±)-(4aR*,8aS*)-8a-[2-fluoro-5-(2-fluoropyridin-3-yl)phenyl]-4,4a,5,6,8,8a-hexahydro-7-oxa-3-thia-1-azanaphthalen-2-ylamine], for which the pIC50 was 6.50. Regarding `NC1=N[C@@]2(c3cc(-c4cccnc4F)cs3)COCC[C@H]2CS1` (racemic) [Example 65, (±)-(4aR*,8aR*1-8a-[4-(2-fluoropyridin-3-yl)-thiophen-2-yl]-4,4a,5,6,8,8a-hexahydro-7-oxa-3-thia-1-azanaphthalen-2-ylamine], the pIC50 is 6.43. On to `N#Cc1ccc(C(=O)Nc2ccc(F)c([C@]34COCC[C@H]3CSC(N)=N4)c2)nc1` (relative stereo) [Example 1, N-[3-((4aR*,8aS*)-2-amino-4,4a,5,6-tetrahydro-7-oxa-3-thia-1-azanaphthalen-8a-yl)-4-fluorophenyl]-5-cyanopyridine-2-carboxamide], for which the pIC50 is 8.77. Regarding `NC1=N[C@@]2(c3cc(NC(=O)c4cnc(OCF)cn4)ccc3F)COCC[C@H]2CS1` (relative stereo) [Example 2, N-[348S*,8aR*)-2-amino-4,4a,5,6-tetrahydro-7-oxa-3-thia-1-azanaphthalen-8a-yl)-4-fluorophenyl]-5-fluoromethoxypyrazine-2-carboxamide], the pIC50 was 8.70. The value for `NC1=N[C@@]2(c3cc(NC(=O)c4cnc(OC(F)F)cn4)ccc3F)COCC[C@H]2CS1` (relative stereo) [Example 3, N-[3-((4aR*,8aS*)-2-amino-4,4a,5,6-tetrahydro-7-oxa-3-thia-1-azanaphthalen-8a-yl)-4-fluorophenyl]-5-difluoromethoxypyrazine-2-carboxamide] was 9.00; that for `C[C@H]1C[C@H]2CSC(N)=N[C@@]2(c2cc(NC(=O)c3ccc(Cl)cn3)ccc2F)CO1` (relative stereo) [Example 6, N-[3-((4aR*,6S*,8aS*)-2-amino-6-methyl-4,4a,5,6-tetrahydro-7-oxa-3-thia-1-azanaphthalen-8a-yl)-4-fluorophenyl]-5-chloropyridine-2-carboxamide] was 8.92; that for `C[C@H]1C[C@H]2CSC(N)=N[C@@]2(c2cc(NC(=O)c3ccc(C#N)cn3)ccc2F)CO1` (relative stereo) [Example 7, N-[3-((4aR*,6S*,8aS*)-2-amino-6-methyl-4,4a,5,6-tetrahydro-7-oxa-3-thia-1-azanaphthalen-8a-yl)-4-fluorophenyl]-5-cyanopyridine-2-carboxamide] was 9.15.

In the case of `C[C@H]1C[C@H]2CSC(N)=N[C@@]2(c2cc(NC(=O)c3ccc(C(F)(F)F)cn3)ccc2F)CO1` (relative stereo) [Example 8, N-[3-((4aR*,6S*,8aS*)-2-amino-6-methyl-4,4a,5,6-tetrahydro-7-oxa-3-thia-1-azanaphthalen-8a-yl)-4-fluorophenyl]-5-trifluoromethylpyridine-2-carboxamide], the pIC50 is 8.80. Then `C[C@H]1C[C@H]2CSC(N)=N[C@@]2(c2cc(NC(=O)c3cnc(OC(F)F)cn3)ccc2F)CO1` (relative stereo) [Example 9, N-[3-((4aR*,6S*,8aS*)-2-amino-6-methyl-4,4a,5,6-tetrahydro-7-oxa-3-thia-1-azanaphthalen-8a-yl)-4-fluorophenyl]-5-difluoromethoxypyrazine-2-carboxamide], with 9.22; and `C[C@H]1C[C@H]2CSC(N)=N[C@@]2(c2cc(NC(=O)c3cnc(OCF)cn3)ccc2F)CO1` (relative stereo) [Example 10, N-[3-((4aR*,6S*,8aS*)-2-amino-6-methyl-4,4a,5,6-tetrahydro-7-oxa-3-thia-1-azanaphthalen-8a-yl)-4-fluorophenyl]-5-fluoromethoxypyrazine-2-carboxamide], with 9.00; and `COC[C@H]1C[C@H]2CSC(N)=N[C@@]2(c2cc(NC(=O)c3ccc(C#N)cn3)ccc2F)CO1` (relative stereo) [Example 11, N-[3-((4aR*,6R*,8aS*)-2-amino-6-methoxymethyl-4,4a,5,6-tetrahydro-7-oxa-3-thia-1-azanaphthalen-8a-yl)-4-fluorophenyl]-5-cyanopyridine-2-carboxamide], with 9.15. Then `COC[C@H]1C[C@H]2CSC(N)=N[C@@]2(c2cc(NC(=O)c3cnc(C(F)F)cn3)ccc2F)CO1` (relative stereo) [Example 12, N-[3-((4aR*,6R*,8aS*)-2-amino-6-methoxymethyl-4,4a,5,6-tetrahydro-7-oxa-3-thia-1-azanaphthalen-8a-yl)-4-fluorophenyl]-5-difluoromethylpyrazine-2-carboxamide], with 8.96; and `COC[C@H]1C[C@H]2CSC(N)=N[C@@]2(c2cc(NC(=O)c3ccc(Cl)cn3)ccc2F)CO1` (relative stereo) [Example 13, N-[3-((4aR*,6R*,8aS*)-2-amino-6-methoxymethyl-4,4a,5,6-tetrahydro-7-oxa-3-thia-1-azanaphthalen-8a-yl)-4-fluorophenyl]-5-chloropyridine-2-carboxamide], with 9.00; and `COC[C@H]1C[C@H]2CSC(N)=N[C@@]2(c2cc(NC(=O)c3cnc(OCF)cn3)ccc2F)CO1` (relative stereo) [Example 14, N-[3-((4aR*,6R*,8aS*)-2-amino-6-methoxymethyl-4,4a,5,6-tetrahydro-7-oxa-3-thia-1-azanaphthalen-8a-yl)-4-fluorophenyl]-5-fluoromethoxypyrazine-2-carboxamide], with 9.10. `COC[C@H]1C[C@H]2CSC(N)=N[C@@]2(c2cc(NC(=O)c3cnc(OC(F)F)cn3)ccc2F)CO1` (relative stereo) [Example 15, N-[3-((4aR*,6R*,8aS*)-2-amino-6-methoxymethyl-4,4a,5,6-tetrahydro-7-oxa-3-thia-1-azanaphthalen-8a-yl)-4-fluorophenyl]-5-difluoromethoxypyrazine-2-carboxamide]: the pIC50 is 9.40. Then `C[C@@H]1COC[C@]2(c3cc(NC(=O)c4ccc(Cl)cn4)ccc3F)N=C(N)SC[C@H]12` (relative stereo) [Example 23, N-[3-((4aR*,5S*,8aS*)-2-amino-5-methyl-4,4a,5,6-tetrahydro-7-oxa-3-thia-1-azanaphthalen-8a-yl)-4-fluorophenyl]-5-chloropyridine-2-carboxamide], with 7.92. The value for `C[C@@H]1COC[C@]2(c3cc(NC(=O)c4ccc(C#N)cn4)ccc3F)N=C(N)SC[C@H]12` (relative stereo) [Example 24, N-[3-((4aR*,5S*,8aS*)-2-amino-5-methyl-4,4a,5,6-tetrahydro-7-oxa-3-thia-1-azanaphthalen-8a-yl)-4-fluorophenyl]-5-cyanopyridine-2-carboxamide] was 8.05; that for `C[C@@H]1COC[C@]2(c3cc(NC(=O)c4cnc(OC(F)F)cn4)ccc3F)N=C(N)SC[C@H]12` (relative stereo) [Example 25, N-[3-((4aR*,5S*,8aS*)-2-amino-5-methyl-4,4a,5,6-tetrahydro-7-oxa-3-thia-1-azanaphthalen-8a-yl)-4-fluorophenyl]-5-difluoromethoxypyrazine-2-carboxamide] was 7.85.
